From patent publication US11524968B2, “Heterocyclic compound as a protein kinase inhibitor” (HK inno.N Corporation, priority 2017, dated 2022)

The molecules below were run against JAK1 (Homo sapiens (Human), UniProt P23458) (assay: Analysis of JAK1 activity inhibition ability (ADP-Glo Kinase Assay)). Details: JAK1 enzyme, ADP-Glo luminescence, ATP 250 uM, IRS-itide substrate, 30° C. 40 minutes; read-out: IC50.
Type: biochemical
Summary of the method: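 ADP-Glo luminescence read-out of ADP production, with IC50 taken as the concentration halving JAK1 activity relative to control. Enzyme was incubated 40 min at 30 °C with compound, IRS-itide (40 ng/mL) and ATP (250 uM), concentrations as prepared in pH 7.5 Tris-HCl/MgCl2/BSA/DTT buffer.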

Sequence of JAK1 (P23458 whole entry): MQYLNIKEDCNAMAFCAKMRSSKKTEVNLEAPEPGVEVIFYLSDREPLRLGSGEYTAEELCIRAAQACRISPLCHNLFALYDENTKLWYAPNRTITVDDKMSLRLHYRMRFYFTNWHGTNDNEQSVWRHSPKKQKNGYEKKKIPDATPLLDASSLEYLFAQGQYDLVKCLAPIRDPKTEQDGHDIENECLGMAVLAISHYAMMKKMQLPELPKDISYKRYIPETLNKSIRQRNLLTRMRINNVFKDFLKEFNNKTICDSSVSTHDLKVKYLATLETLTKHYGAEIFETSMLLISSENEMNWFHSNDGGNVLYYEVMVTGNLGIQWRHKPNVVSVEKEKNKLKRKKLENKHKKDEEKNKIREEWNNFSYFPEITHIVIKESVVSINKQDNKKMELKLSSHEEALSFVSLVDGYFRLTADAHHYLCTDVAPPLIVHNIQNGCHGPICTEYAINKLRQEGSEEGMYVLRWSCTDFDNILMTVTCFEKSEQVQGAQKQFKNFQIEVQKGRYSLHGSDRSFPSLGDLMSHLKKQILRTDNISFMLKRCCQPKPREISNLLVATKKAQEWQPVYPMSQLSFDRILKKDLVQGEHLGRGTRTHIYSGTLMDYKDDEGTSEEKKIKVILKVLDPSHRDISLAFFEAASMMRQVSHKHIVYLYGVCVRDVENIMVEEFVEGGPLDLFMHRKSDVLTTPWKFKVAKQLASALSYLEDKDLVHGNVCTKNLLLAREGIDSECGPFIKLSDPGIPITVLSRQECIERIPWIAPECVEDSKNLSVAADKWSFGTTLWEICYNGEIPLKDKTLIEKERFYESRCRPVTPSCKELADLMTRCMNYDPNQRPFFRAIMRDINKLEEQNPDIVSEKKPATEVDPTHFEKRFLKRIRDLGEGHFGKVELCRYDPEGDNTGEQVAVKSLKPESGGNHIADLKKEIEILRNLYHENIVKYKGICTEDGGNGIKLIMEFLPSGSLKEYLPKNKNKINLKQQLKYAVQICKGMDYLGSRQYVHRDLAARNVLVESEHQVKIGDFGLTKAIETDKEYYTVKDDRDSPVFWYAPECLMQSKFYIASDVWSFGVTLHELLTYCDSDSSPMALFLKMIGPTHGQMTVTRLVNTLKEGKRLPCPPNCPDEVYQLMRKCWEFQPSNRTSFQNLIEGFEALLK

Compound | IC50 [nM]
CS(=O)(=O)N1CCN(c2cc(NC(=O)C3CC3)nc3[nH]ccc23)CC1 [Example 660, N-(4-(4-(methylsulfonyl)piperazin-1-yl)-1H-pyrrolo[2,3-b]pyridin-6-yl)cyclopropanecarboxamide] | > 200
O=C(Nc1cc(N2CCN(CC(=O)N3CCS(=O)(=O)CC3)CC2)c2cc[nH]c2n1)C1CC1 [Example 702, N-(4-(4-(2-(1,1-dioxidothiomorpholino)-2-oxoethyl)piperazin-1-yl)-1H-pyrrolo[2,3-b]pyridin-6-yl)cyclopropanecarboxamide] | > 200
CC1CN(C(=O)c2cccc(Nc3ccccc3)c2)CC=C1c1cc(NC(=O)C2CC2)nc2[nH]ccc12 (centres unmarked) [Example 316, N-(4-(3-methyl-1-(3-(phenylamino)benzoyl)-1,2,3,6-tetrahydropyridin-4-yl)-1H-pyrrolo[2,3-b]pyridin-6-yl)cyclopropanecarboxamide] | > 200
CC(C)S(=O)(=O)N1CC(CC#N)(N2CC=C(c3cc(NC(=O)C4CC4)nc4[nH]ccc34)CC2)C1 [Example 617, N-(4-(1-(3-(cyanomethyl)-1-(isopropylsulfonyl)azetidin-3-yl)-1,2,3,6-tetrahydropyridin-4-yl)-1H-pyrrolo[2,3-b]pyridin-6-yl)cyclopropanecarboxamide] | < 20
CC1CN(C(=O)c2ccnc(O)c2)CC=C1c1cc(NC(=O)C2CC2)nc2[nH]ccc12 (centres unmarked) [Example 383, N-(4-(1-(2-hydroxyisonicotinoyl)-3-methyl-1,2,3,6-tetrahydropyridin-4-yl)-1H-pyrrolo[2,3-b]pyridin-6-yl)cyclopropanecarboxamide] | > 200
N#CC1(CS(=O)(=O)N2CCN(c3cc(NC(=O)C4CC4)nc4[nH]ccc34)CC2)CC1 [Example 662, N-(4-(4-(((1-cyanocyclopropyl)methyl)sulfonyl)piperazin-1-yl)-1H-pyrrolo[2,3-b]pyridin-6-yl)cyclopropanecarboxamide] | > 200
O=C(Nc1cc(-c2ccc(NS(=O)(=O)C3CCCCC3)cc2)c2cc[nH]c2n1)C1CC1 [Example 7, N-(4-(4-(cyclohexanesulfonamido)phenyl)-1H-pyrrolo[2,3-b]pyridin-6-yl)cyclopropanecarboxamide] | < 20
O=C(Nc1cc(C2=CCN(Cc3ccns3)CC2)c2cc[nH]c2n1)C1CC1 [Example 488, N-(4-(1-(isothiazol-5-ylmethyl)-1,2,3,6-tetrahydropyridin-4-yl)-1H-pyrrolo[2,3-b]pyridin-6-yl)cyclopropanecarboxamide] | < 20
O=C(Nc1cc(C2=CCN(C(=O)c3cscn3)CC2)c2cc[nH]c2n1)C1CC1 [Example 291, N-(4-(1-(thiazole-4-carbonyl)-1,2,3,6-tetrahydropyridin-4-yl)-1H-pyrrolo[2,3-b]pyridin-6-yl)cyclopropanecarboxamide] | > 200
N#CCCN1CC=C(c2cc(NC(=O)C3CC3)nc3[nH]ccc23)CC1 [Example 486, N-(4-(1-(2-cyanoethyl)-1,2,3,6-tetrahydropyridin-4-yl)-1H-pyrrolo[2,3-b]pyridin-6-yl)cyclopropanecarboxamide] | 20 to 200
O=C(Nc1cc(-c2ccc(NS(=O)(=O)C3CC3)cc2)c2cc[nH]c2n1)C1CC1 [Example 57, N-(4-(4-(cyclopropanesulfonamido)phenyl)-1H-pyrrolo[2,3-b]pyridin-6-yl)cyclopropanecarboxamide] | < 20
CCCCS(=O)(=O)Nc1ccc(-c2nc(NC(=O)C3CC3)nc3[nH]ccc23)cc1 [Example 191, N-(4-(4-(butylsulfonamido)phenyl)-7H-pyrrolo[2,3-d]pyrimidin-2-yl)cyclopropanecarboxamide] | < 20
N#C[C@H]1CC1C(=O)N1CC=C(c2cc(NC(=O)C3CC3)nc3[nH]ccc23)CC1 (stereo in doubt) [Example 267, N-(4-(1-((1S,2S)-2-cyanocyclopropane-1-carbonyl)-1,2,3,6-tetrahydropyridin-4-yl)-1H-pyrrolo[2,3-b]pyridin-6-yl)cyclopropanecarboxamide] | < 20
O=C(Nc1cc(-c2ccc(NC3CN(C(=O)c4cc(F)cc(F)c4)C3)cc2)c2cc[nH]c2n1)C1CC1 [Example 510, N-(4-(4-((1-(3,5-difluorobenzoyl)azetidin-3-yl)amino)phenyl)-1H-pyrrolo[2,3-b]pyridin-6-yl)cyclopropanecarboxamide] | > 200
CC1CN(C(=O)CC(=O)N2CCOCC2)CC=C1c1cc(NC(=O)C2CC2)nc2[nH]ccc12 (centres unmarked) [Example 362, N-(4-(3-methyl-1-(3-morpholino-3-oxopropanoyl)-1,2,3,6-tetrahydropyridin-4-yl)-1H-pyrrolo[2,3-b]pyridin-6-yl)cyclopropanecarboxamide] | 20 to 200
O=C(Nc1cc(N2CCN(C[C@@H]3CC3(F)F)CC2)c2cc[nH]c2n1)C1CC1 [Example 699, (S)—N-(4-(4-((2,2-difluorocyclopropyl)methyl)piperazin-1-yl)-1H-pyrrolo[2,3-b]pyridin-6-yl)cyclopropanecarboxamide] | 20 to 200

Now from value to molecule:

IC50 [nM] | Compound
> 200 | O=C(Nc1cc(-c2ccc(NC3CCN(C(=O)c4ccncc4)CC3)cc2)c2cc[nH]c2n1)C1CC1 [Example 507, N-(4-(4-((1-isonicotinoylpiperidin-4-yl)amino)phenyl)-1H-pyrrolo[2,3-b]pyridin-6-yl)cyclopropanecarboxamide]
20 to 200 | O=C(Nc1cc(C2=CCN(C(=O)c3cnoc3)CC2)c2cc[nH]c2n1)C1CC1 [Example 287, N-(4-(1-(isoxazole-4-carbonyl)-1,2,3,6-tetrahydropyridin-4-yl)-1H-pyrrolo[2,3-b]pyridin-6-yl)cyclopropanecarboxamide]
20 to 200 | CCS(=O)(=O)Nc1c(F)cc(-c2cc(NC(=O)C3CC3)nc3[nH]ccc23)cc1F [Example 81, N-(4-(4-(ethylsulfonamido)-3,5-difluorophenyl)-1H-pyrrolo[2,3-b]pyridin-6-yl)cyclopropanecarboxamide]
> 200 | N#CCC(=O)N1CC=C(c2cc(NC(=O)C3CC3)nc3[nH]ccc23)C1 [Example 426, N-(4-(1-(2-cyanoacetyl)-2,5-dihydro-1H-pyrrol-3-yl)-1H-pyrrolo[2,3-b]pyridin-6-yl)cyclopropanecarboxamide]
20 to 200 | C[C@@H]1CN(C(=O)C(=Cc2ccccc2)CC#N)CC=C1c1cc(NC(=O)C2CC2)nc2[nH]ccc12 [Example 404, (S)—N-(4-(1-(2-(cyanomethyl)-3-phenylacryloyl)-3-methyl-1,2,3,6-tetrahydropyridin-4-yl)-1H-pyrrolo[2,3-b]pyridin-6-yl)cyclopropanecarboxamide]
20 to 200 | O=C(Nc1cc(-c2ccc(NC3CCN(C(=O)Nc4ccccc4)CC3)c(F)c2)c2cc[nH]c2n1)C1CC1 [Example 498, 4-((4-(6-(cyclopropanecarboxamido)-1H-pyrrolo[2,3-b]pyridin-4-yl)-2-fluorophenyl)amino)-N-phenylpiperidine-1-carboxamide]
20 to 200 | O=C(Nc1cc(C2=CCN(C(=O)CN3CCS(=O)(=O)CC3)CC2)c2cc[nH]c2n1)C1CC1 [Example 251, N-(4-(1-(2-(1,1-dioxidothiomorpholino)acetyl)-1,2,3,6-tetrahydropyridin-4-yl)-1H-pyrrolo[2,3-b]pyridin-6-yl)cyclopropanecarboxamide]
> 200 | COC(=O)C1(C(=O)N2CC=C(c3cc(NC(=O)C4CC4)nc4[nH]ccc34)C(C)C2)CC1 (centres unmarked) [Example 319, methyl 1-(4-(6-(cyclopropanecarboxamido)-1H-pyrrolo[2,3-b]pyridin-4-yl)-3-methyl-1,2,3,6-tetrahydropyridine-1-carbonyl)cyclopropane-1-carboxylate]
20 to 200 | CCS(=O)(=O)NC1CCC(c2cc(NC(=O)C3CC3)nc3[nH]ccc23)CC1 (centres unmarked) [Example 645, N-(4-(4-(ethylsulfonamido)cyclohexyl)-1H-pyrrolo[2,3-b]pyridin-6-yl)cyclopropanecarboxamide]
< 20 | CC(C)S(=O)(=O)Nc1ccc(-c2cc(NC(=O)C3CC3)nc3[nH]ccc23)cc1 [Example 41, N-(4-(4-((1-methylethyl)sulfonamido)phenyl)-1H-pyrrolo[2,3-b]pyridin-6-yl)cyclopropanecarboxamide]
20 to 200 | CCCS(=O)(=O)NCc1ccc(-c2cc(NC(=O)C3CC3)nc3[nH]ccc23)cc1 [Example 583, N-(4-(4-(propylsulfonamidomethyl)phenyl)-1H-pyrrolo[2,3-b]pyridin-6-yl)cyclopropanecarboxamide]
20 to 200 | Cn1ccc(NC(=O)Cc2ccc(-c3cc(NC(=O)C4CC4)nc4[nH]ccc34)cc2)n1 [Example 556, N-(4-(4-(2-((1-methyl-1H-pyrazol-3-yl)amino)-2-oxoethyl)phenyl)-1H-pyrrolo[2,3-b]pyridin-6-yl)cyclopropanecarboxamide]
20 to 200 | O=C(Nc1cc(C2=CCC(NS(=O)(=O)C3CC3)CC2)c2cc[nH]c2n1)C1CC1 (centres unmarked) [Example 154, N-(4-(4-(cyclopropanesulfonamido)cyclohex-1-en-1-yl)-1H-pyrrolo[2,3-b]pyridin-6-yl)cyclopropanecarboxamide]
< 20 | CC1(C)CC(c2cc(NC(=O)C3CC3)nc3[nH]ccc23)=CCN1C(=O)c1ccnc(F)c1 [Example 385, N-(4-(1-(2-fluoroisonicotinoyl)-2,2-dimethyl-1,2,3,6-tetrahydropyridin-4-yl)-1H-pyrrolo[2,3-b]pyridin-6-yl)cyclopropanecarboxamide]
20 to 200 | CC1(C)CN(C(=O)CC#N)CC=C1c1cc(NC(=O)C2CC2)nc2[nH]ccc12 [Example 299, N-(4-(1-(2-cyanoacetyl)-3,3-dimethyl-1,2,3,6-tetrahydropyridin-4-yl)-1H-pyrrolo[2,3-b]pyridin-6-yl)cyclopropanecarboxamide]
20 to 200 | O=C(Nc1cc(C2=CCN(C(=O)c3ccno3)CC2)c2cc[nH]c2n1)C1CC1 [Example 288, N-(4-(1-(isoxazole-5-carbonyl)-1,2,3,6-tetrahydropyridin-4-yl)-1H-pyrrolo[2,3-b]pyridin-6-yl)cyclopropanecarboxamide]
